Reference: US12338236B2, “Benzoisothiazole and benzoisoxazole compounds for the treatment of mental disorders” (SUVEN LIFE SCIENCES LIMITED, priority 2022, dated 2025)
Counter-ions that a name gives are not always drawn.

Key:
motor coordination = test: Rat rotarod assay; type: in vivo; details: rats, doses of 3 & 10 mg/kg, 60 min prior to trial
Protocol: Example-52: Rat Rotarod Assay
The rotarod test was employed to investigate the possible effect of Example-2 on motor coordination. Twenty hours prior to the test, rats were trained to remain on revolving bar (4 rpm) of the rotarod apparatus (TSE Systems; GmHb, Germany). Animals that successfully stayed on rotating rod for 60 seconds (out of 4 trials per animal) were selected for further study. […] A single trial was carried out on the next day. Animals that were able to stay on the rotating rod for 60 seconds were chosen for further study. Animals were administered Example-2 or Vehicle 60 min prior to the trial. The latency to fall from the rotating rod was noted.

[1] = tested on: amphetamine-induced hyperlocomotion; test: Amphetamine-induced open field assay; type: in vivo, Male Wistar rats; details: rats, 3, 10, 30 mg/kg, p.o., vs Amphetamine (2.5 mg/kg, i.p.) treated group
Protocol: Example-51: Amphetamine-Induced Open Filed Assay
Male Wistar rats of 230-250 g weight were used. The body weights of the rats were recorded. Rats were randomized according to their body weights. Animals were brought to the laboratory 1 h prior to acclimatizing to the laboratory conditions. The open field is black colored arena of 51×51×51 cm enclosed by black plastic walls of same dimensions. Rats were habituated to the open field arena for a period of 15 min. Animals were administered respective treatments (Vehicle or Example-2) 60 min prior to the trial. After 30 min, animals were challenged with amphetamine (2.5 mg/kg, i.p.) or vehicle. Then the animals were placed in open field arenas and distance traveled by […] was tracked for 15 min using Videomot software. Data was analyzed using GraphPad prism.

`Cc1nnc(-c2csc(OCCCN3CCN(c4nsc5ccccc45)CC3)n2)o1` [Example-2, 3-(4-{3-[4-(5-Methyl-[1,3,4]oxadiazol-2-yl)-thiazol-2-yloxy]-propyl}-piperazin-1-yl)-benzo[d]isothiazole oxalate] was tested, and the “Effect on motor coordination (latency to fall from rotating rod)” value (motor coordination) was “No notable effects on motor coordination” and the “Effect on amphetamine-induced locomotion (distance traveled)” value [1] was “significant decrease in locomotion”.
